From patent publication US20240092835A1, “NOVEL PEPTIDES CAPABLE OF ALTERING NK CELL ACTIVITY” (Massachusetts Institute of Technology, priority 2022, published 2024)

How the values were obtained:
NKG2A+/NKG2C− NK cells = assay: NK cell activation markers in NKG2A+/NKG2C- NK cells incubated with peptide and K562 expressing HLA-E (inhibition); type: cell-based, human; settings: for percentage of CCL3+ NK cells / percentage of CD107a+ NK cells / percentage of IFNG+ NK cells / percentage of TNF+ NK cells: NKG2A+/NKG2C- NK cells, K562/HLA-E
Method: (§1) A human immortalized myelogenous leukemia cell line (K562), which expresses HLA-E was incubated with novel peptides (Table 1) derived from the human proteome or human cytomegalovirus proteome. […] Controls assessments were also performed using NKG2A−/NKG2C− cells (Tables 10-13). Inhibition was indicated by a decrease in percent cells positive for cell surface markers, while activation was indicated by an increase in percent cells positive for cell surface markers.

NKG2A−/NKG2C− NK cells = assay: NK cell activation markers in control NKG2A-/NKG2C- NK cells incubated with peptide and K562 expressing HLA-E; type: cell-based, human
Method: as §1

NKG2A−/NKG2C+ NK cells = assay: NK cell activation markers in NKG2A-/NKG2C+ NK cells incubated with peptide and K562 expressing HLA-E (activation); type: cell-based, human; settings: for effect on NKG2A−/NKG2C+ NK cell activation (in words): K562 expressing HLA-E, CD107a, IFNG, TNF, CCL3; for percentage of CCL3+ NK cells / percentage of CD107+ NK cells / percentage of IFNG+ NK cells / percentage of TNF+ NK cells: NKG2A-/NKG2C+ NK cells, K562/HLA-E
Method: as §1

HLA-E = target: T1, HLA-E (Homo sapiens, UniProt P13747); assay: HLA-E surface stabilization assay with RMA-S/HLA-E cells; type: cell-based; settings: 30 μM peptide, 16 hours; for HLA-E surface expression stability (GeoMFI): anti-HLA-E antibody
T1 construct: expressed in transfected cells; host or cells: RMA-S/HLA-E cells (antigen processing-defective lymphoma cell line)
Method: HLA-E surface expression was assessed by measuring geometric mean fluorescence intensity (GeoMFI) in RMA-S cells following immunofluorescence staining with an anti-HLA-E antibody (Table 14). Increased GeoMFI was indicative of increased HLA-E surface expression stability following novel peptide exposures (FIG. 3).

T1 sequence (P13747 22-358): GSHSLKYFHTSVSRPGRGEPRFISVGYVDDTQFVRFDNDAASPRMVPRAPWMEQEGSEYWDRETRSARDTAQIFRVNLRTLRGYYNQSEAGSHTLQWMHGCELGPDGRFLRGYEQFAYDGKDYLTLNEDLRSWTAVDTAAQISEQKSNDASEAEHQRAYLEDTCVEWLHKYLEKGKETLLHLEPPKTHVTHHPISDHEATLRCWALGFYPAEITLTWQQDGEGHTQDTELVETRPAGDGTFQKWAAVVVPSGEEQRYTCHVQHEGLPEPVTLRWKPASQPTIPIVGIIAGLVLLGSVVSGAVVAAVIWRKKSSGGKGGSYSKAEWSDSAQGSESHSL
T1 sequence (P61769 21-119 partner): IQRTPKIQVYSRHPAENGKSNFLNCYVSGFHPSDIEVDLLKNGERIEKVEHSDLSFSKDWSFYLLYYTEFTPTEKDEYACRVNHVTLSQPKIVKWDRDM

Q: Which results are given for “VLPHRTQFL [CMV1, novel CMV-derived peptide UL120 72-80, Merlin]”?
A: effect on NKG2A+/NKG2C− NK cell inhibition (in words) (NKG2A+/NKG2C− NK cells; K562 expressing HLA-E, CD107a, IFNG, TNF, CCL3): strong inhibitory; percentage of CCL3+ NK cells (NKG2A+/NKG2C− NK cells; Trial 1): 3.55%; percentage of CD107a+ NK cells (NKG2A+/NKG2C− NK cells; Trial 1): 2.12%; percentage of IFNG+ NK cells (NKG2A+/NKG2C− NK cells; Trial 1): 0.46%; percentage of TNF+ NK cells (NKG2A+/NKG2C− NK cells; Trial 1): 0.27%; percentage of CCL3+ NK cells (NKG2A+/NKG2C− NK cells; Trial 2): 7.82%; percentage of CD107a+ NK cells (NKG2A+/NKG2C− NK cells; Trial 2): 3.42%; percentage of IFNG+ NK cells (NKG2A+/NKG2C− NK cells; Trial 2): 1.08%; percentage of TNF+ NK cells (NKG2A+/NKG2C− NK cells; Trial 2): 0.39%; percentage of CCL3+ NK cells (NKG2A+/NKG2C− NK cells; Trial 3): 7.91%; percentage of CD107a+ NK cells (NKG2A+/NKG2C− NK cells; Trial 3): 4.2%; percentage of IFNG+ NK cells (NKG2A+/NKG2C− NK cells; Trial 3): 2.52%; percentage of TNF+ NK cells (NKG2A+/NKG2C− NK cells; Trial 3): 1.09%; percentage of CCL3+ NK cells (NKG2A+/NKG2C− NK cells; Trial 4): 3.5%; percentage of CD107a+ NK cells (NKG2A+/NKG2C− NK cells; Trial 4): 3.15%; percentage of IFNG+ NK cells (NKG2A+/NKG2C− NK cells; Trial 4): 0.93%; percentage of TNF+ NK cells (NKG2A+/NKG2C− NK cells; Trial 4): 0.7%; percentage of CCL3+ NK cells (NKG2A+/NKG2C− NK cells; Trial 5): 14.5%; percentage of CD107a+ NK cells (NKG2A+/NKG2C− NK cells; Trial 5): 3.92%; percentage of IFNG+ NK cells (NKG2A+/NKG2C− NK cells; Trial 5): 1.35%; percentage of TNF+ NK cells (NKG2A+/NKG2C− NK cells; Trial 5): 0.82%; percentage of CCL3+ NK cells (NKG2A+/NKG2C− NK cells; Trial 6): 3.86%; percentage of CD107a+ NK cells (NKG2A+/NKG2C− NK cells; Trial 6): 2.27%; percentage of IFNG+ NK cells (NKG2A+/NKG2C− NK cells; Trial 6): 0.82%; percentage of TNF+ NK cells (NKG2A+/NKG2C− NK cells; Trial 6): 0.34%; percentage CCL3+ NK cells (NKG2A−/NKG2C− NK cells; Trial 1): 29.9%; percentage CD107+ NK cells (NKG2A−/NKG2C− NK cells; Trial 1): 21.4%; percentage TNF+ NK cells (NKG2A−/NKG2C− NK cells; Trial 1): 2.62%; percentage of IFNG+ NK cells (NKG2A−/NKG2C− NK cells; Trial 1): 13.5%; percentage CCL3+ NK cells (NKG2A−/NKG2C− NK cells; Trial 2): 52.4%; percentage CD107+ NK cells (NKG2A−/NKG2C− NK cells; Trial 2): 32.5%; percentage TNF+ NK cells (NKG2A−/NKG2C− NK cells; Trial 2): 9.43%; percentage of IFNG+ NK cells (NKG2A−/NKG2C− NK cells; Trial 2): 27.7%; percentage CCL3+ NK cells (NKG2A−/NKG2C− NK cells; Trial 3): 47.3%; percentage CD107+ NK cells (NKG2A−/NKG2C− NK cells; Trial 3): 41.9%; percentage TNF+ NK cells (NKG2A−/NKG2C− NK cells; Trial 3): 13.6%; percentage of IFNG+ NK cells (NKG2A−/NKG2C− NK cells; Trial 3): 36.7%; percentage CCL3+ NK cells (NKG2A−/NKG2C− NK cells; Trial 4): 27.2%; percentage CD107+ NK cells (NKG2A−/NKG2C− NK cells; Trial 4): 25.7%; percentage TNF+ NK cells (NKG2A−/NKG2C− NK cells; Trial 4): 8.63%; percentage of IFNG+ NK cells (NKG2A−/NKG2C− NK cells; Trial 4): 17.4%; percentage CCL3+ NK cells (NKG2A−/NKG2C− NK cells; Trial 5): 26.6%; percentage CD107+ NK cells (NKG2A−/NKG2C− NK cells; Trial 5): 18.6%; percentage TNF+ NK cells (NKG2A−/NKG2C− NK cells; Trial 5): 6.68%; percentage of IFNG+ NK cells (NKG2A−/NKG2C− NK cells; Trial 5): 14.6%; percentage CCL3+ NK cells (NKG2A−/NKG2C− NK cells; Trial 6): 19.1%; percentage CD107+ NK cells (NKG2A−/NKG2C− NK cells; Trial 6): 14.5%; percentage TNF+ NK cells (NKG2A−/NKG2C− NK cells; Trial 6): 2.86%; percentage of IFNG+ NK cells (NKG2A−/NKG2C− NK cells; Trial 6): 8.57%; effect on NKG2A−/NKG2C+ NK cell activation (in words) (NKG2A−/NKG2C+ NK cells): strong inhibitory and activating effects; effect on NKG2A−/NKG2C+ NK cell activation (in words) (NKG2A−/NKG2C+ NK cells; listed as SEQ ID NO. 15): strong activating effects; percentage of CCL3+ NK cells (NKG2A−/NKG2C+ NK cells; Trial 1): 80.1%; percentage of CD107+ NK cells (NKG2A−/NKG2C+ NK cells; Trial 1): 77.3%; percentage of IFNG+ NK cells (NKG2A−/NKG2C+ NK cells; Trial 1): 66.3%; percentage of TNF+ NK cells (NKG2A−/NKG2C+ NK cells; Trial 1): 53.3%; percentage of CCL3+ NK cells (NKG2A−/NKG2C+ NK cells; Trial 2): 90.4%; percentage of CD107+ NK cells (NKG2A−/NKG2C+ NK cells; Trial 2): 87.2%; percentage of IFNG+ NK cells (NKG2A−/NKG2C+ NK cells; Trial 2): 82.8%; percentage of TNF+ NK cells (NKG2A−/NKG2C+ NK cells; Trial 2): 76.1%; percentage of CCL3+ NK cells (NKG2A−/NKG2C+ NK cells; Trial 3): 86.5%; percentage of CD107+ NK cells (NKG2A−/NKG2C+ NK cells; Trial 3): 86.2%; percentage of IFNG+ NK cells (NKG2A−/NKG2C+ NK cells; Trial 3): 78.5%; percentage of TNF+ NK cells (NKG2A−/NKG2C+ NK cells; Trial 3): 68.8%; percentage of CCL3+ NK cells (NKG2A−/NKG2C+ NK cells; Trial 4): 67.5%; percentage of CD107+ NK cells (NKG2A−/NKG2C+ NK cells; Trial 4): 67.3%; percentage of IFNG+ NK cells (NKG2A−/NKG2C+ NK cells; Trial 4): 58.2%; percentage of TNF+ NK cells (NKG2A−/NKG2C+ NK cells; Trial 4): 51%; percentage of CCL3+ NK cells (NKG2A−/NKG2C+ NK cells; Trial 5): 78.1%; percentage of CD107+ NK cells (NKG2A−/NKG2C+ NK cells; Trial 5): 76.9%; percentage of IFNG+ NK cells (NKG2A−/NKG2C+ NK cells; Trial 5): 69.5%; percentage of TNF+ NK cells (NKG2A−/NKG2C+ NK cells; Trial 5): 66%; percentage of CCL3+ NK cells (NKG2A−/NKG2C+ NK cells; Trial 6): 58.3%; percentage of CD107+ NK cells (NKG2A−/NKG2C+ NK cells; Trial 6): 53.4%; percentage of IFNG+ NK cells (NKG2A−/NKG2C+ NK cells; Trial 6): 42.5%; percentage of TNF+ NK cells (NKG2A−/NKG2C+ NK cells; Trial 6): 33.3%; HLA-E surface expression stability (GeoMFI) (HLA-E; Trial 1): 2140 GeoMFI; HLA-E surface expression stability (GeoMFI) (HLA-E; Trial 2): 1714 GeoMFI; HLA-E surface expression stability (GeoMFI) (HLA-E; Trial 3): 2014 GeoMFI; HLA-E surface expression stability (GeoMFI) (HLA-E; Trial 4): 2421 GeoMFI; HLA-E surface expression stabilization strength, approximate GeoMFI (HLA-E; approximate value): approximately 2×10^3 GeoMFI
